In US7507749B2, “Antitumor agents” (priority 2001, dated 2009):

Test system: mammary adenocarcinoma-17/Adr
Assay: Test E: R-enantiomer of compound 22b and compound 22a against early stage mammary adenocarcinoma-17/Adr
Format: in vivo
Protocol: Then, P.B.S. was added and the pH adjusted to 7 with HCl. A volume of 0.2 ml per injection was administered to animals intravenously. […] Then, P.B.S. was added and the pH was adjusted to 7 with HCl. A volume of 0.2 ml per injection was administered to animals intravenously.

[1] = Cage 6, IV 83 mg/kg/inj qd 1-4, total 332 mg/kg
[2] = Cage 7, IV 55 mg/kg/inj qd 1-4, total 220 mg/kg
[3] = Cage 7, IV 55 mg/kg/inj qd 1-4, total 220 mg/kg, listed as R-enantiomer of compound 22b
[4] = Cage 8 (one mouse), IV single bolus 124.5 mg/kg day 1

C[C@@H](Oc1ccc(Oc2ccc3ccc(Cl)cc3n2)cc1)C(=O)O [Compound R-22b, (R) 2-[4-(7-chloroquinolin-2-yloxy)phenoxy]propanoic acid]
Neuromuscular toxicity (Cage 6, IV 83 mg/kg/inj qd 1-4): neuromuscular toxicity was not produced
% Body Wt Loss at Nadir [1]: −17.5%
% T/C mass [1]: toxic
Activity Rating [1]: toxic
Cause of death [1]: GI-epithelial damage
Day of Nadir [1]: 6 days
Drug Deaths [1]: 5/5
Median Tumor Mass on day 9 (Range) [1]: toxic
Tumor Free day-23 [1]: 0/5
Drug Deaths (Cage 6, IV 83 mg/kg/inj qd 1-4, total 332 mg/kg, listed as R-enantiomer of compound 22b): killing all of the 5 mice
% Body Wt Loss at Nadir [2]: −23.4%
% T/C mass [2]: 0%
Activity Rating [2]: ++++ (>2.8)
Cause of death [2]: GI-epithelial damage (diarrhea) complicated with marrow toxicity
Day of Nadir [2]: 9 days
Day of full recovery of body weight [2]: 14 days
Day tumors reached 1000 mg (range) [2]: 22 (18-23) day
Drug Deaths [2]: 1/5
Growth Delay [2]: 13 days
Log Kill [2]: 3.3
Median Tumor Mass on day 9 (Range) [2]: 0 (all zeros) mg
Tumor Free day-23 [2]: 0/5
% Body Wt Loss at Nadir [3]: −23.4%
% T/C mass [3]: 0%
% Body Wt Loss at Nadir [4]: 0%
Activity Rating [4]: + (0.7-1.2)
Day of Nadir [4]: 9 days
Drug Deaths [4]: 0/1
Growth Delay [4]: 3 days
Log Kill [4]: 0.8
Median Tumor Mass on day 9 (Range) [4]: 340 (one mouse) mg
Neuromuscular toxicity [4]: no neuromuscular toxicity
Tumor Free day-23 [4]: 0/1
% T/C mass (Cage 8 (one mouse), IV single bolus 124.5 mg/kg day 1, 124.5 mg/kg): 35%
% T/C mass (Cage 8 (one mouse), IV single bolus 124.5 mg/kg day 1, listed as R-enantiomer of compound 22b, 124.5 mg/kg): 35%
